According to US20140106387A1, “METHOD FOR CONTROLLING NAD(P)/NAD(P)H RATIO BY OXIDOREDUCTASE” (MD BIOALPHA CO., LTD., priority 2006, published 2014):

Columns and labels:
cardiomyocytes = experiment: mitochondrial oxygen consumption in cardiomyocytes; assay type: cell-based
Description: FIG. 22 is a graph showing monitoring results of mitochondrial oxygen consumption using a Clark-type oxygen electrode;

HepG2 cells [1] = experiment: mitochondrial membrane potential (TMRE fluorescence) in HepG2 cells; assay type: cell-based, human; conditions: NQO1-proficient HepG2 cells
Procedure: (§1) For determination of the inner mitochondrial membrane potential (ΔΨm), 20 nM of TMRE (tetramethylrhodamine ethyl ester) as a fluorescent indicator was continuously applied to be loaded on cells. In order to monitor mitochondrial Ca^2+, cells on glass coverslips were loaded with 10 μM Rhod-2 AM via cold loading/warm incubation. In order to monitor cytosolic Ca^2+, cells were co-loaded with 10 μM Fluo-4 AM at 37′C for 30 min. The cells were washed twice with a KB solution, and mounted in a perfusion chamber. Fluorescent imaging was taken using a confocal laser scanning microscope (LSM-510 META, Carl Zeiss) at a magnification of ×200 and ×400, in conjunction with appropriate laser lines and a filter set. Image analysis was carried out using LSM-510 META software (Zeiss). Images for TMRE (red fluorescence), Rhod-2 (red fluorescence) and Fluo-4 (green fluorescence) were obtained using an inverted Zeiss 510META laser-scanning confocal microscope equipped with ×63 numerical aperture, 1.4 oil-immersion planapochromat lens. Green fluorescence and red fluorescence were illuminated with light of 488 nm and 543 nm. Incident light was passed through a 545 nm dichroic mirror and observed via a 500 to 530 nm band-pass (green) filter and a 560 nm long-pass (red) barrier filter.
(§2) However, such effects were not observed in HEK293 cells. […]

AMPK, ACC = experiment: AMPK kinase / ACC activity in HepG2 cells; assay type: cell-based, human
eNOS = experiment: phosphorylation of endothelial nitric oxide synthase (eNOS) in HUVEC; assay type: cell-based, human; conditions: 10 μM
Procedure: It is well-known that activation of AMPK activates NRF-1 and facilitates mitochondrial biogenesis. In addition, NO/cGMP activates PGC-1α and NRF-1 to facilitate mitochondrial biogenesis. In order to ascertain whether an NQO1 activator, which activates AMPK, is involved in production of nitric oxide (NO), a degree of phosphorylation, leading to an increase in activity of endothelial nitric oxide synthase (eNOS), was determined. […] The culture medium was replaced with a serum free EBM2 medium, and cells were treated with pyrano-1,2-naphthoquinone (10 μM) for a predetermined time. Phosphorylated eNOS was observed using Anti-[…] eNOS.

[2] = AMP/ATP, NAD+/NADH and NADP+/NADPH ratios in liver after intravenous administration; assay type: in vivo, mouse; conditions: Lean mice
HepG2 cells [3] = experiment: calcium influx (Fluo-4) in HepG2 cells; assay type: cell-based, human
Procedure: Cells were grown on a coverslip in a culture medium for 24 hours, maintained in an RPMI 1640 serum-free medium for 1 hour, and pretreated with a calcium indicator Fluo-4 (5 μM) for 30 min. After pretreatment, the coverslip was mounted on a slide glass. Changes in an intracellular calcium concentration were observed using a fluorescence microscope (Carl Zeiss) for 30 sec, and cells were treated with a candidate compound (e.g. pyran-1,2-naphthoquinone) simultaneously with consecutive imaging of calcium changes using a fluorescence microscope (Carl Zeiss) for 2 sec. […] Changes in the intracellular calcium concentration were observed using a fluorescence microscope (Carl Zeiss) for 30 sec, and cells were treated with pyre-1,2-naphthoquinone (10 μM), followed by continuous shooting of calcium changes using a fluorescence microscope for 2 sec. Using an LSM Image Browser program (Carl Zeiss), 300 images taken for 10 min every 2 seconds were sorted and ordered in a time sequence and plotted on a graph.
For determination of the inner mitochondrial membrane potential (ΔΨm), 20 nM of TMRE (tetramethylrhodamine ethyl ester) as a fluorescent indicator was continuously applied to be loaded on cells. In order to monitor mitochondrial Ca^2+, cells on glass coverslips were loaded with 10 μM Rhod-2 AM via cold loading/warm incubation. In order to monitor cytosolic Ca^2+, cells were co-loaded with 10 μM Fluo-4 AM at 37′C for 30 min. […] Images for TMRE (red fluorescence), Rhod-2 (red fluorescence) and Fluo-4 (green fluorescence) were obtained using an inverted Zeiss 510META laser-scanning confocal microscope equipped with ×63 numerical aperture, 1.4 oil-immersion planapochromat lens. Green fluorescence and red fluorescence were illuminated with light of 488 nm and 543 nm. […]
Cells were cultured for 24 hours and then pre-treated with Fluo-4 for 30 min. Cells immobilized on a coverslip were transferred to a slide glass and treated with pyrano-1,2-naphthoquinone (10 μM), and at the same time images were taken every 2 seconds for 10 min using a fluorescence microscope.

HEK293 cells = experiment: mitochondrial membrane potential (TMRE fluorescence) in HEK293 cells; assay type: cell-based, human
Procedure: as §1, §2

## CC1(C)CCC2=C(O1)c1ccccc1C(=O)C2=O [βL, 2,2-Dimethyl-3,4-dihydro-2H-benzo[h]chromene-5,6-dione]
cardiomyocytes
  mitochondrial oxygen consumption: increased
HepG2 cells [1]
  decrease of TMRE fluorescence: about 20%
AMPK, ACC
  ACC activation: decreases ACC activation
AMPK, ACC; 10 μM, 30 min
  activity of AMPK: increased
eNOS
  time of maximum increase of phosphorylation of eNOS: 30 min
eNOS; 2 hours
  phosphorylation of eNOS 2 hours later: not observed
[2]
  changes in the AMP/ATP ratio and NAD+/NADP ratio compared with control: less changes
HepG2 cells [3]; Fluo4 and Rhod-2-AM fluorescence, cells not given
  cytosolic Ca2+ concentration ([Ca2+]c) and mitochondrial Ca2+ concentration ([Ca2+]m): increases
HepG2 cells [3]; HepG2, 10 μM
  time of calcium peak after treatment: about 10 sec
HEK293 cells
  effect on TMRE fluorescence / ΔΨm: not observed
